Assays:
[1] = system: Hairless albino Sh:HR-1 mice; test: UVB induced skin carcinogenesis in hairless mice (tumour multiplicity); assay type: in vivo, mouse; settings: one minimal erythemal dose of UVB daily for 10 weeks; tumours counted at weeks 11, 13, 14, 15, 16 and 17; versus control group
Description: Hairless mouse strains such as the HRA-Skh-1 mice are a standard mouse model used to study solar damage to human skin (Canfield et al., 1985—reference 1). Exposure of the hairless mouse to UV light mimics “sunburn” in humans. With continued irradiation treatment, this on-going damage is reflected in progressive thickening of the skin which histologically mimics hyperkeratinization and elastosis associated with photoaging and chronically sun-exposed skin in humans. Pre-malignant tumours begin to appear within several weeks of completion of the ultra violet light regimen. Over an ensuing time period there is a progressive development of pre-malignant and malignant tumours, the histology and behaviour of which closely mimic keratoses and pre-malignant and malignant skin cancers that develop in humans in response to sunlight.
Hairless albino Sh:HR-1 mice are divided into two groups each containing 20 animals. The first group receiving Nle^4-D-Phe^7-alpha-MSH, and the second group being a control group. Both groups receive one minimal erythemal dose of UVB light to stimulate the toxic effect of sunlight on the skin daily for 10 weeks. At weeks 11, 13, 14, 15, 16 and 17 the number of skin tumours on each animal is measured and calculated as tumour multiplicity, i.e. average number of tumours per mouse.

human volunteers = settings: cited from earlier work

Substance: [Nle^4,D-Phe^7]-alpha-MSH [Nle^4-D-Phe^7-α-MSH]
- protection against UVB induced carcinogenesis (tumour multiplicity, average number of tumours per mouse) [1]: Protection against UVB induced carcinogenesis is observed
- induction of melanin synthesis (human volunteers): can induce melanin synthesis

Reference: patent US20100113337A1, “METHOD FOR REDUCING INCIDENCE OR RATE OF DEVELOPMENT OF SKIN CANCERS AND RELATED CONDITIONS” (Clinuvel Pharmaceuticals Limited, priority 2006, published 2010)
